Experimental data as given in patent EP0253650A2, “Improvements relating to benzothiophene derivatives” (ELI LILLY AND COMPANY, priority 1986, dated 1988).

Test system: guinea pigs
Assay: Antigen induced anaphylaxis in guinea pigs (ovalbumin aerosol challenge of sensitized animals)
Format: in vivo
Conditions: percent inhibition of anaphylaxis (severity index vs placebo), two hours prior to aerosol challenge
Description: Following the general procedure taught by Andersson, Brit. J. Pharmacol., 69, 467 (1980), mixed sex Hartley strain guinea pigs (250-300 g) were sensitized to ovalbumin by a single injection of 1 mcg of ovalbumin mixed with 50 mg of aluminum hydroxide per animal. These animals were used 21 to 26 days later for aerosol challenge with ovalbumin.
Anaphylaxis was induced by exposure to an aerosol of 10 mg of ovalbumin per milliliter of water for 10 minutes delivered by a Tri-R venturi nebulizer, particle size 2 to 5 micron diameter, at a delivery rate of 0.4 ml of solution per minute. The guinea pigs were placed in specially constructed chamber for exposure to the aerosol. The aerosol was introduced from the bottom of the chamber and exhausted at the top. A baffle above the chamber inlet port provided even distribution of the aerosol throughout the chamber. The animals were supported above the inlet on a wire mesh disc. The chamber was under slight negative pressure to enhance the exhaust of the aerosol which was passed through a calcium chloride trap followed by a super-cooled condenser trap.
Groups of five guinea pigs were treated with the compounds of this invention, clinical anti-asthmatic agents, or placebo (vehicle only) two hours prior to the aerosol challenge. All the animals also received 3 mg/kg pyrillamine orally two hours prior to the aerosol challenge in order to blunt the histamine component of the anaphylaxis. The compounds were administered orally as a suspension in 10% acacia or intraperitoneally in 10% acacia.
The number of animals that responded to the aerosol challenge for each of the above parameters as well as the time for the response to occur were recorded. The data were analyzed by comparing the severity index (the sum of the number of animals that coughed, collapsed, and/or died) between the treated and placebo group of guinea pigs. Thus, the maximum severity index for each group of five guinea pigs is 15. On the average, the severity index for the placebo group was 10-12. The percent inhibition of anaphylaxis was determined by the following formula: [formula] where Sd is the severity index for the drug treated animals and Sp is the severity index of the placebo treated animals.

Row | SMILES | Percent Inhibition (dose 30 mg/kg, I.P.) [%] | Percent Inhibition (dose 50 mg/kg, I.P.) | Percent Inhibition (dose 50 mg/kg, P.O.) [%] | Percent Inhibition (dose 10 mg/kg, I.P.) [%]
1 | CCOc1cc2cc(CO)sc2cc1OCC [Example 7, 5,6-Diethoxybenzo[b]thiophene-2-methanol] | 89 | 74% | 68 | 
2 | CCOc1cc2cc(C(=O)Nc3nnn[nH]3)sc2cc1OCC [Example 4, 5,6-Diethoxy-N-1H-tetrazol-5-ylbenzo[b]thiophene-2-carboxamide] |  |  | 56 | 
3 | CCOc1cc2cc(-c3nnn[nH]3)sc2cc1OCC [Example 6, 5-(5,6-Diethoxybenzo[b]thien-2-yl)-1H-tetrazole] |  |  | 43 | 
4 | CCOc1cc2cc(C(=O)N(CC)CC)sc2cc1OCC [Example 3, N,N-Diethyl-5,6-diethoxybenzo[b]thiophene-2-carboxamide] | 89 | 82% | 38 | 44
5 | CCOc1cc2cc(C#N)sc2cc1OCC [Example 5, 5,6-Diethoxybenzo[b]thiophene-2-carbonitrile] | 69 | 74-84% | 22 | 
